Reference: PubChem BioAssay AID2060503 (Molecular Pharmacology Branch, DTP, NCI, 2025)

Test system: 817829-284-R-J1-PDC complex spheroids, viability
Assay: Anticancer human tumor 817829-284-R-J1-PDC patient-derived colon adenocarcinoma cell line growth inhibition [GQUAD]
Settings: for IC50: curve of first compound; for viability, T/C: stronger effect = lower value
Method in brief: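 Viability of tumor cells grown as complex spheroids with endothelial and stromal cells, exposed to drug combinations. Top concentration at or near clinical Cmax (else 10 microM), diluted in half-log increments.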

[1] = second compound 0.0316 µM, first compound 0.0316 µM
[2] = second compound 0.0316 µM, first compound 0.1 µM
[3] = second compound 0.0316 µM, first compound 0.316 µM
[4] = second compound 0.0316 µM, first compound 1 µM
[5] = second compound 0.0316 µM, first compound 3.16 µM
[6] = second compound 0.0316 µM, first compound 10 µM
[7] = second compound 0.1 µM, first compound 0.0316 µM
[8] = second compound 0.1 µM, first compound 0.1 µM
[9] = second compound 0.1 µM, first compound 0.316 µM
[10] = second compound 0.1 µM, first compound 1 µM
[11] = second compound 0.1 µM, first compound 3.16 µM
[12] = second compound 0.1 µM, first compound 10 µM
[13] = second compound 0.316 µM, first compound 0.0316 µM
[14] = second compound 0.316 µM, first compound 0.1 µM
[15] = second compound 0.316 µM, first compound 0.316 µM
[16] = second compound 0.316 µM, first compound 1 µM
[17] = second compound 0.316 µM, first compound 3.16 µM
[18] = second compound 0.316 µM, first compound 10 µM
[19] = second compound 1 µM, first compound 0.0316 µM
[20] = second compound 1 µM, first compound 0.1 µM
[21] = second compound 1 µM, first compound 0.316 µM
[22] = second compound 1 µM, first compound 1 µM
[23] = second compound 1 µM, first compound 3.16 µM
[24] = second compound 1 µM, first compound 10 µM
[25] = second compound 3.16 µM, first compound 0.0316 µM
[26] = second compound 3.16 µM, first compound 0.1 µM
[27] = second compound 3.16 µM, first compound 0.316 µM
[28] = second compound 3.16 µM, first compound 1 µM
[29] = second compound 3.16 µM, first compound 3.16 µM
[30] = second compound 3.16 µM, first compound 10 µM
[31] = second compound 10 µM, first compound 0.0316 µM
[32] = second compound 10 µM, first compound 0.1 µM
[33] = second compound 10 µM, first compound 0.316 µM
[34] = second compound 10 µM, first compound 1 µM
[35] = second compound 10 µM, first compound 3.16 µM
[36] = second compound 10 µM, first compound 10 µM
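Further: spheroids exposed to agents for 7 days before readout.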
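Wherever viability, T/C is given: percent viability relative to DMSO vehicle control taken as 100%.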

`COc1ncnc(C2CC2)c1-c1ncc2cnn(Cc3ccc(-c4nc(C(F)(F)F)cn4C(C)C)cc3)c2n1` + CN(C)c1ccc(Nc2c3ccc(NC(=O)CCN4CCCC4)cc3nc3cc(NC(=O)CCN4CCCC4)ccc23)cc1 showed an IC50 (second compound 0.0316 µM) of over 10 µM, an IC50 (second compound 0.1 µM) of over 10 µM and an IC50 (second compound 0.316 µM) of over 10 µM. For the same compound, the IC50 (second compound 1 µM) was over 10 µM, the IC50 (second compound 3.16 µM) was over 10 µM and the IC50 (second compound 10 µM) was 4.43 µM. The viability, T/C [1] was 102%, the viability, T/C [2] was 119% and the viability, T/C [3] was 106%. For the same compound, the viability, T/C [4] was 107%, the viability, T/C [5] was 108% and the viability, T/C [6] was 115%. The viability, T/C [7] was 100%, the viability, T/C [8] was 123% and the viability, T/C [9] was 104%. It also gave a viability, T/C [10] of 105%, a viability, T/C [11] of 111% and a viability, T/C [12] of 114%. For the same compound, the viability, T/C [13] was 100%, the viability, T/C [14] was 118% and the viability, T/C [15] was 102%. It also gave a viability, T/C [16] of 107%, a viability, T/C [17] of 105% and a viability, T/C [18] of 119%. It also gave a viability, T/C [19] of 107%, a viability, T/C [20] of 112% and a viability, T/C [21] of 115%. For the same compound, the viability, T/C [22] was 104%, the viability, T/C [23] was 104% and the viability, T/C [24] was 114%. It also gave a viability, T/C [25] of 106%, a viability, T/C [26] of 103% and a viability, T/C [27] of 100%. The viability, T/C [28] was 93.2%, the viability, T/C [29] was 103% and the viability, T/C [30] was 97.5%. The viability, T/C [31] was 114%, the viability, T/C [32] was 108% and the viability, T/C [33] was 91.6%. For the same compound, the viability, T/C [34] was 95.3%, the viability, T/C [35] was 53.8% and the viability, T/C [36] was 31.1%.

`CC(C)n1c(=O)n(C)c2cnc3cc(F)c(-c4ccc(OCCCN5CCCCC5)nc4)cc3c21` + Cc1[nH]c2ccc(F)cc2c1-c1nc2c3cccnc3c3ncccc3c2[nH]1 showed an IC50 (second compound 0.0316 µM) of over 10 µM, an IC50 (second compound 0.1 µM) of over 10 µM and an IC50 (second compound 0.316 µM) of over 10 µM. For the same compound, the IC50 (second compound 1 µM) was 7.83 µM, the IC50 (second compound 3.16 µM) was 4.57 µM and the IC50 (second compound 10 µM) was 0.549 µM. It also gave a viability, T/C [1] of 120%, a viability, T/C [2] of 82.6% and a viability, T/C [3] of 84.8%. The viability, T/C [4] was 94.4%, the viability, T/C [5] was 104% and the viability, T/C [6] was 94.9%. It also gave a viability, T/C [7] of 90.8%, a viability, T/C [8] of 106% and a viability, T/C [9] of 95.8%. For the same compound, the viability, T/C [10] was 107%, the viability, T/C [11] was 107% and the viability, T/C [12] was 117%. The viability, T/C [13] was 79.7%, the viability, T/C [14] was 99.8% and the viability, T/C [15] was 103%. The viability, T/C [16] was 103%, the viability, T/C [17] was 117% and the viability, T/C [18] was 103%. The viability, T/C [19] was 87.5%, the viability, T/C [20] was 104% and the viability, T/C [21] was 120%. It also gave a viability, T/C [22] of 102%, a viability, T/C [23] of 115% and a viability, T/C [24] of 35%. For the same compound, the viability, T/C [25] was 76.6%, the viability, T/C [26] was 90.9% and the viability, T/C [27] was 64.6%. The viability, T/C [28] was 78%, the viability, T/C [29] was 69.8% and the viability, T/C [30] was 7.73%. It also gave a viability, T/C [31] of 65.2%, a viability, T/C [32] of 73.3% and a viability, T/C [33] of 49.2%. The viability, T/C [34] was 46.5%, the viability, T/C [35] was 21.9% and the viability, T/C [36] was 5.4%.

For `CC1COCCN1c1cc(-c2ccnn2C)c2ccnc(-c3ccn[nH]3)c2n1` (stereo unspecified) + Cc1[nH]c2ccc(F)cc2c1-c1nc2c3cccnc3c3ncccc3c2[nH]1, the IC50 (second compound 0.0316 µM) was 0.0487 µM, the IC50 (second compound 0.1 µM) was under 0.0316 µM and the IC50 (second compound 0.316 µM) was under 0.0316 µM. It also gave an IC50 (second compound 1 µM) of under 0.0316 µM, an IC50 (second compound 3.16 µM) of under 0.0316 µM and an IC50 (second compound 10 µM) of under 0.0316 µM. It also gave a viability, T/C [1] of 72.5%, a viability, T/C [2] of 12.9% and a viability, T/C [3] of 9.49%. The viability, T/C [4] was 4.92%, the viability, T/C [5] was 6.02% and the viability, T/C [6] was 4.47%. The viability, T/C [7] was 46.3%, the viability, T/C [8] was 19.1% and the viability, T/C [9] was 8.08%. It also gave a viability, T/C [10] of 6.91%, a viability, T/C [11] of 5.94% and a viability, T/C [12] of 4.22%. For the same compound, the viability, T/C [13] was 48.6%, the viability, T/C [14] was 19.7% and the viability, T/C [15] was 9.27%. It also gave a viability, T/C [16] of 7.38%, a viability, T/C [17] of 5.29% and a viability, T/C [18] of 4.46%. For the same compound, the viability, T/C [19] was 38.1%, the viability, T/C [20] was 19.6% and the viability, T/C [21] was 7.66%. For the same compound, the viability, T/C [22] was 6.25%, the viability, T/C [23] was 5.62% and the viability, T/C [24] was 4.21%. The viability, T/C [25] was 35.8%, the viability, T/C [26] was 8.61% and the viability, T/C [27] was 5.3%. It also gave a viability, T/C [28] of 3.85%, a viability, T/C [29] of 3.53% and a viability, T/C [30] of 3.13%. The viability, T/C [31] was 28.2%, the viability, T/C [32] was 4.74% and the viability, T/C [33] was 3.18%. The viability, T/C [34] was 3.81%, the viability, T/C [35] was 2.63% and the viability, T/C [36] was 2.34%.
